# Data: US20070184519A1, “Peptides, polypeptides, and proteins of reduced immunogenicity and methods for their production” (priority 2003, published 2007)
# Read-outs that look alike come from different tables or passages of the source.
# Experiments:
# DRB4*0101 = target: T1, DRB4*0101 (Homo sapiens, UniProt P01903+P13762, G164S); assay: Class II peptide-binding assay DRB4*0101 (DRw53)
# T1 construct: expressed in transfected cells; host or cells: transfected fibroblasts L257.6
# DRB1*0301 = target: T2, DRB1*0301 (Homo sapiens, UniProt P01903+P01911, A100K/A102G/A103R/A169T/F55Y/I96L/K41T/L162R/M171V/P40S/Q125H/Q178H/Q39Y/R42S/S66N/T106N/T262R/W38E/Y61H); assay: Class II peptide-binding assay DRB1*0301 (DR3)
# T2 construct: Epstein-Barr virus (EBV) transformed homozygous cell lines were used as sources of human HLA Class II molecules; endogenous in cells; host or cells: MAT (EBV-transformed homozygous B cell line)
# DRB1*0701 = target: T3, DRB1*0701 (Homo sapiens, UniProt P01903+P01911, A100R/A102G/A103Q/D57E/D86V/E43K/F76Y/K127E/L162R/M171V/P40G/Q125H/Q99D/R33Q/R42Y/R54Q/S133A/S66F/T210M/V115G/Y107V/Y59L/Y89S); assay: Class II peptide-binding assay DRB1*0701 (DR7)
# T3 construct: Epstein-Barr virus (EBV) transformed homozygous cell lines were used as sources of human HLA Class II molecules; endogenous in cells; host or cells: PITOUT (EBV-transformed homozygous B cell line)
# DRB1*0401 = target: T4, DRB1*0401 (Homo sapiens, UniProt P01903+P01911, A100K/A169T/F76Y/I96L/K127E/L162R/M171V/N62H/P40V/Q125Y/R42H/S133A/S149N/S66Y/V115G/V209L/W38E); assay: Class II peptide-binding assay DRB1*0401 (DR4w4)
# T4 construct: Epstein-Barr virus (EBV) transformed homozygous cell lines were used as sources of human HLA Class II molecules; endogenous in cells; host or cells: PREISS (EBV-transformed homozygous B cell line)
# DRB1*1101 = target: T5, DRB1*1101 (Homo sapiens, UniProt P01903+P01911, A100R/A169T/A87E/I96F/K41T/L162R/M171V/P40S/Q125H/Q178H/Q39Y/Q99D/R42S/S66Y/T262R/V115G/W38E); assay: Class II peptide-binding assay DRB1*1101 (DR5w11)
# T5 construct: Epstein-Barr virus (EBV) transformed homozygous cell lines were used as sources of human HLA Class II molecules; endogenous in cells; host or cells: SWEIG (EBV-transformed homozygous B cell line)
# DRB5*0101 = target: T6, DRB5*0101 (Homo sapiens, UniProt P01903+Q30154); assay: Class II peptide-binding assay DRB5*0101 (DR2w2a)
# T6 construct: Epstein-Barr virus (EBV) transformed homozygous cell lines were used as sources of human HLA Class II molecules; endogenous in cells; host or cells: GM3107 (EBV-transformed homozygous B cell line)
# DRB3*0101 = target: T7, DRB3*0101 (Homo sapiens, UniProt P01903+P79483); assay: Class II peptide-binding assay DRB3*0101 (DR52a)
# T7 construct: expressed in transfected cells; host or cells: transfected fibroblasts TR81.19
# DRB1*0405 = target: T8, DRB1*0405 (Homo sapiens, UniProt P01903+P01911, A100R/A169T/D86S/F76Y/I96L/K127E/L162R/M171V/N62H/P40V/Q125Y/R42H/S133A/S149N/S66Y/V115G/V209L/W38E); assay: Class II peptide-binding assay DRB1*0405 (DR4w15)
# T8 construct: Epstein-Barr virus (EBV) transformed homozygous cell lines were used as sources of human HLA Class II molecules; endogenous in cells; host or cells: KT3 (EBV-transformed homozygous B cell line)
# DRB1*1302 = target: T9, DRB1*1302 (Homo sapiens, UniProt P01903+P01911, A100E/A169T/K41T/L162R/M171V/P40S/Q125H/Q178H/Q39Y/Q99D/R42S/S66N/T262R/V115G/W38E/Y61H); assay: Class II peptide-binding assay DRB1*1302 (DR6w19)
# T9 construct: Epstein-Barr virus (EBV) transformed homozygous cell lines were used as sources of human HLA Class II molecules; endogenous in cells; host or cells: HO301 / H0301 (EBV-transformed homozygous B cell line)
# DRB1*0101 = target: T10, DRB1*0101 (Homo sapiens, UniProt P01903+P01911, A100R/D57E/F55L/F60I/F76Y/I96L/L162R/M171V/P40L/Q125E/R42F/V115G/Y59C); assay: Class II peptide-binding assay DRB1*0101 (DR1)
# T10 construct: Epstein-Barr virus (EBV) transformed homozygous cell lines were used as sources of human HLA Class II molecules; endogenous in cells; host or cells: LG2 (EBV-transformed homozygous B cell line)
# DRB1*0404 = target: T11, DRB1*0404 (Homo sapiens, UniProt P01903+P01911, A100R/A169T/F76Y/I96L/K127E/L162R/M171V/N62H/P40V/Q125Y/R42H/S133A/S149N/S66Y/V209L/W38E); assay: Class II peptide-binding assay DRB1*0404 (DR4w14)
# T11 construct: Epstein-Barr virus (EBV) transformed homozygous cell lines were used as sources of human HLA Class II molecules; endogenous in cells; host or cells: BIN40 (EBV-transformed homozygous B cell line)
# DRB1*0802 = target: T12, DRB1*0802 (Homo sapiens, UniProt P01903+P01911, A100R/A103L/A169T/F76Y/H45Y/I96F/K41T/L162R/M171V/P40S/Q125H/Q178H/Q39Y/Q99D/R218S/R42G/S66Y/V115G/W38E); assay: Class II peptide-binding assay DRB1*0802 (DR8w2)
# T12 construct: Epstein-Barr virus (EBV) transformed homozygous cell lines were used as sources of human HLA Class II molecules; endogenous in cells; host or cells: OLL (EBV-transformed homozygous B cell line)
# [1] = known HLA-DR and DQ restricted epitopes, Table 6
# T2 sequence (P01903 26-254, other chains not shown): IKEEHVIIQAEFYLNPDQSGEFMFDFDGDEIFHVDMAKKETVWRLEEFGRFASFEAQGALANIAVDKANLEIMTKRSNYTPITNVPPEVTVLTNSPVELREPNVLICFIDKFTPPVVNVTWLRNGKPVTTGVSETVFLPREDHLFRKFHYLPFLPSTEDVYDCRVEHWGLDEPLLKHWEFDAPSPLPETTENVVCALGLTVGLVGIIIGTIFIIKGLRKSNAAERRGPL
# T5 sequence (P01903 26-254, other chains not shown): as above
# T9 sequence (P01903 26-254, other chains not shown): as above
smiles,measurement,setting,value
CC[C@H](C)[C@H](NC(=O)[C@H](Cc1ccc(O)cc1)NC(=O)[C@@H]1CCCN1C(=O)[C@H](CC(=O)O)NC(=O)[C@H](CCC(=O)O)NC(=O)[C@H](CC(C)C)NC(=O)[C@@H](NC(=O)[C@H](C)N)C(C)C)C(=O)N[C@@H](CC(C)C)C(=O)N[C@@H](CC(C)C)C(=O)N[C@H](C(=O)N[C@@H](CO)C(=O)N[C@@H](CO)C(=O)N[C@@H](CCCCN)C(=O)N[C@H](C(=O)N[C@@H](CO)C(=O)O)C(C)C)C(C)C,IC50,DRB4*0101,4210 nM
same,IC50,DRB1*0301; [1],> 20000 nM
same,IC50,DRB1*0701; [1],73 nM
same,IC50,DRB1*0401; [1],182 nM
same,IC50,DRB1*1101; [1],6670 nM
same,IC50,DRB5*0101,2500 nM
same,IC50,DRB3*0101,5000 nM
CC(C)C[C@H](NC(=O)[C@H](Cc1ccccc1)NC(=O)[C@H](CC(N)=O)NC(=O)[C@H](CO)NC(=O)[C@H](Cc1ccc(O)cc1)NC(=O)[C@@H](NC(=O)[C@H](CCCNC(=N)N)NC(=O)[C@H](Cc1ccccc1)NC(=O)[C@H](C)NC(=O)[C@H](CCCCN)NC(=O)[C@H](CCCNC(=N)N)NC(=O)[C@H](Cc1ccccc1)NC(=O)[C@@H](NC(=O)[C@@H](N)CC(=O)O)[C@@H](C)O)C(C)C)C(=O)N[C@@H](CCCNC(=N)N)C(=O)O,IC50,DRB1*0405,48 nM
same,IC50,DRB1*0401,25 nM
same,IC50,DRB1*1302,123 nM
same,IC50,DRB1*1101,5.3 nM
same,IC50,DRB1*0101,68 nM
same,IC50,DRB5*0101,80 nM
CC(C)C[C@H](NC(=O)[C@H](Cc1ccccc1)NC(=O)[C@H](CC(N)=O)NC(=O)[C@H](CO)NC(=O)[C@H](Cc1ccc(O)cc1)NC(=O)[C@@H](NC(=O)[C@H](CCCNC(=N)N)NC(=O)[C@H](Cc1ccccc1)NC(=O)CNC(=O)[C@H](CCCCN)NC(=O)[C@H](CCCNC(=N)N)NC(=O)[C@H](Cc1ccccc1)NC(=O)[C@@H](NC(=O)[C@@H](N)CC(=O)O)[C@@H](C)O)C(C)C)C(=O)N[C@@H](CCCNC(=N)N)C(=O)O,IC50,DRB1*0404,151 nM
same,IC50,DRB1*1101,10 nM
CC(C)C[C@H](NC(=O)[C@H](CC(=O)O)NC(=O)[C@H](CC(N)=O)NC(=O)[C@H](CO)NC(=O)[C@H](Cc1ccc(O)cc1)NC(=O)[C@@H](NC(=O)[C@H](CCCNC(=N)N)NC(=O)[C@H](Cc1ccccc1)NC(=O)[C@H](CC(C)C)NC(=O)[C@H](CCCCN)NC(=O)[C@H](CCCNC(=N)N)NC(=O)[C@H](Cc1ccccc1)NC(=O)[C@@H](NC(=O)[C@@H](N)CC(=O)O)[C@@H](C)O)C(C)C)C(=O)N[C@@H](CCCNC(=N)N)C(=O)O,IC50,DRB4*0101,1390 nM
same,IC50,DRB1*0301,11500 nM
same,IC50,DRB1*0802,75 nM
same,IC50,DRB1*0401,24 nM
same,IC50,DRB1*1101,3.6 nM
same,IC50,DRB1*0101,85 nM
CC[C@H](C)[C@H](NC(=O)[C@H](CCCNC(=N)N)NC(=O)[C@H](Cc1c[nH]c2ccccc12)NC(=O)[C@@H](NC(=O)[C@H](C)NC(=O)CNC(=O)[C@H](Cc1c[nH]c2ccccc12)NC(=O)[C@H](CO)NC(=O)[C@@H](N)CCC(=O)O)C(C)C)C(=O)N[C@@H](CC(=O)O)C(=O)N[C@H](C(=O)N1CCC[C@H]1C(=O)N[C@@H](CC(=O)O)C(=O)N[C@@H](CCCCN)C(=O)N[C@@H](CC(C)C)C(=O)N[C@H](C(=O)NCC(=O)N1CCC[C@H]1C(=O)N[C@@H](Cc1ccccc1)C(=O)N[C@H](C(=O)O)[C@@H](C)O)[C@@H](C)O)[C@@H](C)O,IC50,DRB4*0101; [1],1120 nM
same,IC50,DRB1*0405; [1],1730 nM
same,IC50,DRB1*0301; [1],3180 nM
same,IC50,DRB1*0701; [1],> 20000 nM
same,IC50,DRB1*0401; [1],> 20000 nM
same,IC50,DRB1*0101; [1],2500 nM
CC(C)C[C@H](NC(=O)CN)C(=O)N[C@@H](CCCNC(=N)N)C(=O)N[C@@H](CO)C(=O)N[C@@H](CC(C)C)C(=O)N[C@H](C(=O)N[C@H](C(=O)N[C@@H](CC(C)C)C(=O)N[C@@H](CC(C)C)C(=O)N[C@@H](CC(=O)O)C(=O)N[C@@H](C)C(=O)N[C@@H](CC(C)C)C(=O)NCC(=O)N[C@@H](C)C(=O)N[C@@H](CCC(N)=O)C(=O)O)[C@@H](C)O)[C@@H](C)O,IC50,DRB1*0404,9.3 nM
same,IC50,DRB1*0405,11 nM
same,IC50,DRB1*0301,13000 nM
same,IC50,DRB1*0802,240 nM
same,IC50,DRB1*0701,10300 nM
same,IC50,DRB1*0401,8.5 nM
same,IC50,DRB1*1101,10 nM
same,IC50,DRB1*0101,14 nM
same,IC50,DRB5*0101,804 nM
CC(C)C[C@H](NC(=O)[C@@H](NC(=O)[C@H](CC(C)C)NC(=O)[C@@H](NC(=O)[C@H](CCCCN)NC(=O)[C@H](Cc1ccc(O)cc1)NC(=O)CN)C(C)C)C(C)C)C(=O)N[C@@H](CC(N)=O)C(=O)N1CCC[C@H]1C(=O)N[C@@H](CO)C(=O)N[C@H](C(=O)N[C@@H](C)C(=O)N[C@@H](C)C(=O)N[C@H](C(=O)O)[C@@H](C)O)C(C)C,IC50,DRB3*0101,> 20000 nM
CC[C@H](C)[C@H](NC(=O)[C@H](CC(N)=O)NC(=O)[C@@H](N)CCC(N)=O)C(=O)N[C@@H](CC(C)C)C(=O)N[C@@H](CC(C)C)C(=O)N[C@@H](CO)C(=O)N[C@@H](CC(N)=O)C(=O)N[C@@H](C)C(=O)N1CCC[C@H]1C(=O)N[C@@H](CC(C)C)C(=O)NCC(=O)N1CCC[C@H]1C(=O)N[C@@H](CCC(N)=O)C(=O)N[C@@H](Cc1ccccc1)C(=O)N1CCC[C@H]1C(=O)O,IC50,DRB1*0404; [1],143 nM
same,IC50,DRB1*0802; [1],13400 nM
same,IC50,DRB1*0701; [1],296 nM
same,IC50,DRB1*1302; [1],5.3 nM
same,IC50,DRB5*0101; [1],> 20000 nM
same,IC50,DRB3*0101; [1],> 20000 nM
